The values that follow come from patent US11052092B2, “N-{[2-(piperidin-1-yl)phenyl](phenyl)methyl}-2-(3-oxo-3,4-dihydro-2H-1,4-benzoxazin-7-yl)acetamide derivatives and related compounds as ROR-gamma modulators for treating autoimmune diseases” (Genfit, priority 2017, dated 2021).

Counter-ions that a name gives are not always drawn.

The compound `Cc1ccc(C(NC(=O)Cc2ccc3c(c2)CN(S(C)(=O)=O)C3)c2ccc(C)o2)c(N2CCCCC2)c1` (stereo not shown) (as salt: HCl) [Cpd. 41, 2-(2-methanesulfonyl-2,3-dihydro-1H-isoindol-5-yl)-N-{[4-methyl-2-(piperidin-1-yl)phenyl](5-methylfuran-2-yl)methyl}acetamide] had a melting point of 83 °C.
Then `Cc1ccc(C(NC(=O)Cc2cccc3c2CN(S(C)(=O)=O)C3)c2ccc(C)o2)c(N2CCCCC2)c1` (stereo not shown) (as salt: HCl) [Cpd. 50, 2-(2-methanesulfonyl-2,3-dihydro-1H-isoindol-4-yl)-N-{[4-methyl-2-(piperidin-1-yl)phenyl](5-methylfuran-2-yl)methyl}acetamide], with 155 °C.
As for `Cc1ccc(C(NC(=O)Cc2ccc3c(c2)CCC3=O)c2ccc(C)o2)c(N2CCCCC2)c1` (stereo not shown) (as salt: HCl) [Cpd. 51, N-{[4-methyl-2-(piperidin-1-yl)phenyl](5-methylfuran-2-yl)methyl}-2-(1-oxo-2,3-dihydro-1H-inden-5-yl)acetamide], the figure is 74 °C; as for `Cc1ccc(C(NC(=O)Cc2cc(C)c3c(c2)CC(=O)N3)c2ccc(C)o2)c(N2CCCCC2)c1` (stereo not shown) (as salt: HCl) [Cpd. 54, N-{[4-methyl-2-(piperidin-1-yl)phenyl](5-methylfuran-2-yl)methyl}-2-(7-methyl-2-oxo-2,3-dihydro-1H-indol-5-yl)acetamide], 237 °C; as for `CC(C)=C1C(=O)Nc2ccc(CC(=O)NC(c3ccc(C)o3)c3ccc(C)cc3N3CCCCC3)cc21` (stereo not shown) (as salt: HCl) [Cpd. 55, N-{[4-methyl-2-(piperidin-1-yl)phenyl](5-methylfuran-2-yl)methyl}-2-[2-oxo-3-(propan-2-ylidene)-2,3-dihydro-1H-indol-5-yl]acetamide], 172 °C.
As for `Cc1ccc(C(NC(=O)C2(c3ccc4c(c3)CN(S(C)(=O)=O)C4)CC2)c2ccc(Cl)o2)c(C)c1` (stereo not shown) (as salt: HCl) [Cpd. 56, N-[(5-chlorofuran-2-yl)(2,4-dimethylphenyl)methyl]-1-(2-methanesulfonyl-2,3-dihydro-1H-isoindol-5-yl)cyclopropane-1-carboxamide], the figure is 68 °C; as for `Cc1ccc(C(NC(=O)Cc2ccc3[nH]cc(CCO)c3c2)c2ccc(C)o2)c(N2CCCCC2)c1` (stereo not shown) (as salt: HCl) [Cpd. 57, 2-[3-(2-hydroxyethyl)-1H-indol-5-yl]-N-{[4-methyl-2-(piperidin-1-yl)phenyl](5-methylfuran-2-yl)methyl}acetamide], 80 °C.
The compound `Cc1ccc(C(NC(=O)Cc2ccc3[nH]cc(CO)c3c2)c2ccc(C)o2)c(N2CCCCC2)c1` (stereo not shown) (as salt: HCl) [Cpd. 58, 2-[3-(hydroxymethyl)-1H-indol-5-yl]-N-{[4-methyl-2-(piperidin-1-yl)phenyl](5-methylfuran-2-yl)methyl}acetamide] yielded a melting point of 99 °C.
As for `Cc1ccc(C(NC(=O)C2(c3ccc4c(c3)OCC(=O)N4)CC2)c2ccc(C)o2)c(C)c1` (stereo not shown) (as salt: HCl) [Cpd. 59, N-[(2,4-dimethylphenyl)(5-methylfuran-2-yl)methyl]-1-(3-oxo-3,4-dihydro-2H-1,4-benzoxazin-7-yl)cyclopropane-1-carboxamide], the figure is 89 °C; as for `Cc1ccc(C(NC(=O)C2(c3ccc4c(c3)CC(=O)N4)CC2)c2ccc(C)o2)c(C)c1` (stereo not shown) (as salt: HCl) [Cpd. 61, N-[(2,4-dimethylphenyl)(5-methylfuran-2-yl)methyl]-1-(2-oxo-2,3-dihydro-1H-indol-5-yl)cyclopropane-1-carboxamide], 85 °C; as for `Cc1ccc(C(NC(=O)C2(c3ccc4[nH]cc(CCO)c4c3)CC2)c2ccc(Cl)o2)c(C)c1` (stereo not shown) (as salt: HCl) [Cpd. 62, N-[(5-chlorofuran-2-yl)(2,4-dimethylphenyl)methyl]-1-[3-(2-hydroxyethyl)-1H-indol-5-yl]cyclopropane-1-carboxamide], 70 °C.
Then `Cc1ccc(C(NC(=O)C2(c3ccc4c(c3)CS(=O)(=O)N4)CC2)c2ccc(C)o2)c(C)c1` (stereo not shown) (as salt: HCl) [Cpd. 63, N-[(2,4-dimethylphenyl)(5-methylfuran-2-yl)methyl]-1-(2,2-dioxo-1,3-dihydro-2,1-benzothiazol-5-yl)cyclopropane-1-carboxamide], with 97 °C; and `Cc1ccc(C(NC(=O)Cc2ccc3[nH]cc(C)c3c2)c2ccc(C)o2)c(N2CCCCC2)c1` (stereo not shown) (as salt: HCl) [Cpd. 64, 2-(3-methyl-1H-indol-5-yl)-N-{[4-methyl-2-(piperidin-1-yl)phenyl](5-methylfuran-2-yl)methyl}acetamide], with 68 °C; and `Cc1ccc(C(NC(=O)C2(c3ccc4c(c3)CN(S(C)(=O)=O)C4)CC2)c2ccc(C)o2)c(C)c1` (stereo not shown) (as salt: HCl) [Cpd. 65, N-[(2,4-dimethylphenyl)(5-methylfuran-2-yl)methyl]-1-(2-methanesulfonyl-2,3-dihydro-1H-isoindol-5-yl)cyclopropane-1-carboxamide], with 67 °C.
With `Cc1ccc(C(NC(=O)C2(c3ccc4[nH]cc(CCO)c4c3)CC2)c2ccc(C)o2)c(N2CCCCC2)c1` (stereo not shown) (as salt: HCl) [Cpd. 66, 1-[3-(2-hydroxyethyl)-1H-indol-5-yl]-N-{[4-methyl-2-(piperidin-1-yl)phenyl](5-methylfuran-2-yl)methyl}cyclopropane-1-carboxamide], the melting point was 95 °C.
As for `Cc1ccc(C(NC(=O)Cc2ccc3c(c2)C(=O)CC3)c2ccc(C)o2)c(N2CCCCC2)c1` (stereo not shown) (as salt: HCl) [Cpd. 67, N-{[4-methyl-2-(piperidin-1-yl)phenyl](5-methylfuran-2-yl)methyl}-2-(3-oxo-2,3-dihydro-1H-inden-5-yl)acetamide], the figure is 71 °C.
`Cc1ccc(C(NC(=O)Cc2ccc3c(c2)CS(=O)(=O)N3CC2CCOCC2)c2ccc(C)o2)c(Br)c1` (stereo not shown) (as salt: HCl) [Cpd. 68, N-[(2-bromo-4-methylphenyl)(5-methylfuran-2-yl)methyl]-2-[1-(oxan-4-ylmethyl)-2,2-dioxo-1,3-dihydro-2,1-benzothiazol-5-yl]acetamide] displayed a melting point of 92 °C.
As for `Cc1ccc(C(NC(=O)C2(c3ccc4c(c3)CS(=O)(=O)N4C)CC2)c2ccc(C)o2)c(C)c1` (stereo not shown) (as salt: HCl) [Cpd. 70, N-[(2,4-dimethylphenyl)(5-methylfuran-2-yl)methyl]-1-(1-methyl-2,2-dioxo-1,3-dihydro-2,1-benzothiazol-5-yl)cyclopropane-1-carboxamide], the figure is 70 °C; as for `Cc1ccc(C(NC(=O)C2(c3ccc4c(c3)CS(=O)(=O)N4)CC2)c2ccc(C)o2)c(N(C)C)c1` (stereo not shown) (as salt: HCl) [Cpd. 71, N-{[2-(dimethylamino)-4-methylphenyl](5-methylfuran-2-yl)methyl}-1-(2,2-dioxo-1,3-dihydro-2,1-benzothiazol-5-yl)cyclopropane-1-carboxamide], 107 °C; as for `Cc1ccc(C(NC(=O)C2(c3ccc4c(c3)CS(=O)(=O)C4)CC2)c2ccc(Cl)o2)c(C)c1` (stereo not shown) (as salt: HCl) [Cpd. 72, N-[(5-chlorofuran-2-yl)(2,4-dimethylphenyl)methyl]-1-(2,2-dioxo-1,3-dihydro-2-benzothiophen-5-yl)cyclopropane-1-carboxamide], 80 °C.
Then `Cc1ccc(C(NC(=O)C2(c3ccc4c(c3)CN(S(C)(=O)=O)C4)CC2)c2ccc(C)o2)c(N2CCCC2)c1` (stereo not shown) (as salt: HCl) [Cpd. 73, 1-(2-methanesulfonyl-2,3-dihydro-1H-isoindol-5-yl)-N-{[4-methyl-2-(pyrrolidin-1-yl)phenyl](5-methylfuran-2-yl)methyl}cyclopropane-1-carboxamide], with 84 °C; and `Cc1ccc(C(NC(=O)C2(c3ccc4c(c3)CS(=O)(=O)C4)CC2)c2ccc(C)o2)c(C)c1` (stereo not shown) (as salt: HCl) [Cpd. 74, N-[(2,4-dimethylphenyl)(5-methylfuran-2-yl)methyl]-1-(2,2-dioxo-1,3-dihydro-2-benzothiophen-5-yl)cyclopropane-1-carboxamide], with 74 °C.
Compound `Cc1ccc(C(NC(=O)C2(c3ccc4c(c3)CN(S(C)(=O)=O)C4)CC2)c2ccc(C)o2)c(N(C)C)c1` (stereo not shown) (as salt: HCl) [Cpd. 76, N-{[2-(dimethylamino)-4-methylphenyl](5-methylfuran-2-yl)methyl}-1-(2-methanesulfonyl-2,3-dihydro-1H-isoindol-5-yl)cyclopropane-1-carboxamide] registered a melting point of 70 °C.
As for `Cc1ccc(C(NC(=O)Cc2ccc3[nH]c(C)nc3c2)c2ccc(C)o2)c(Br)c1` (stereo not shown) (as salt: HCl) [Cpd. 77, N-[(2-bromo-4-methylphenyl)(5-methylfuran-2-yl)methyl]-2-(2-methyl-1H-1,3-benzodiazol-5-yl)acetamide], the figure is 209 °C; as for `Cc1ccc(C(NC(=O)Cc2ccc3c(c2)CS(=O)(=O)C3)c2ccc(C)o2)c(N2CCCCC2)c1` (stereo not shown) (as salt: HCl) [Cpd. 78, 2-(2,2-dioxo-1,3-dihydro-2-benzothiophen-5-yl)-N-{[4-methyl-2-(piperidin-1-yl)phenyl](5-methylfuran-2-yl)methyl}acetamide], 87 °C.
Consider `Cc1ccc(C(NC(=O)Cc2ccc3c(c2)CN(S(C)(=O)=O)C3)c2ccc(Cl)o2)c(N2CCCCC2)c1` (stereo not shown) (as salt: HCl) [Cpd. 79, N-[(5-chlorofuran-2-yl)[4-methyl-2-(piperidin-1-yl)phenyl]methyl]-2-(2-methanesulfonyl-2,3-dihydro-1H-isoindol-5-yl)acetamide], for which the melting point came out at 143 °C.
As for `Cc1ccc(C(NC(=O)C2(c3ccc4c(c3)CN(S(C)(=O)=O)C4)CC2)c2ccc(Cl)o2)c(N2CCCC2)c1` (stereo not shown) (as salt: HCl) [Cpd. 80, N-[(5-chlorofuran-2-yl)[4-methyl-2-(pyrrolidin-1-yl)phenyl]methyl]-1-(2-methanesulfonyl-2,3-dihydro-1H-isoindol-5-yl)cyclopropane-1-carboxamide], the figure is 82 °C; as for `Cc1ccc(C(NC(=O)Cc2ccc3[nH]c(C)nc3c2)c2ccccc2)c(N2CCCC2)c1` (stereo not shown) (as salt: HCl) [Cpd. 82, 2-(2-methyl-1H-1,3-benzodiazol-5-yl)-N-{[4-methyl-2-(pyrrolidin-1-yl)phenyl](phenyl)methyl}acetamide], 132 °C.
